Experimental findings from ChEMBL document CHEMBL4765264, “Design, synthesis and biological evaluation of novel 2-(5-aryl-1H-imidazol-1-yl) derivatives as potential inhibitors of the HIV-1 Vpu and host BST-2 protein interaction” (Eur J Med Chem, 2020) are described below.

By inhibition is commonly meant how much of the control response was suppressed. As a reminder, the CC50 is the concentration giving 50% cytotoxicity. For orientation: solubility means the concentration that dissolves in the medium under given conditions. A word on the IC50: it is the concentration that inhibits the measured activity by half. Broadly, the EC50 is the concentration at which the effect is half-maximal.

The structures appear in SMILES notation.

Data set [1] in a line: Inhibition of recombinant HIV1 Viral Protein U expressed in Escherichia coli BL21(DE3) cells/BST-2 (unknown origin) interaction at 100 uM preincubated for 30 mins with viral protein U followed by further incubation with BST-2 for 1 hr by sandwich ELISA relative to control. As to conditions: time 90.0 min. (In general: In an ELISA, binding on a coated surface is turned into a signal by an enzyme label.)

A short description of data set [2]: Inhibition of recombinant biotinylated HIV1 Viral Protein U expressed in Escherichia coli BL21(DE3)cells/recombinant GST-tagged BST-2 (unknown origin) interaction at 100 uM preincubated for 30 mins with viral protein U followed by further incubation with BST-2 for 1 hr by Alphascreen assay relative to control. As to conditions: time 90.0 min.
Data set [3] is described as follows: Cytotoxicity against human MT4 cells assessed as inhibition of cell viability incubated for 72 hrs by MTS assay. The format is cell-based.
The nature of data set [4]: Aqueous solubility of the compound in phosphate buffer saline at 200 uM at wavelength of 250 nm incubated for overnight under shaking condition by filtration assay based UV-visible spectroscopy. The format is physicochemical.
Data set [5] can be described thus: Inhibition of recombinant biotinylated HIV1 Viral Protein U expressed in Escherichia coli BL21(DE3) cells/recombinant GST-tagged BST-2 (unknown origin) interaction preincubated for 30 mins with viral protein U followed by further incubation with BST-2 for 1 hr by Alphascreen assay. A general note: Alpha assays give light when donor and acceptor beads are brought close together.

In data set [6] the test system is Human immunodeficiency virus 1. As to the kind of experiment: Antiviral activity against HIV1 LAV infected in human MT4 cells assessed as reduction in viral replication by measuring reduction in p24 expression incubated for 72 hrs by ELISA. The format is functional, organism-based. As to conditions: Human immunodeficiency virus 1, LAV, MT4, 72 h.
The nature of data set [7]: Aqueous solubility of the compound in phosphate buffer saline at 100 uM at wavelength of 250 nm incubated for overnight under shaking condition by filtration assay based UV-visible spectroscopy. The format is physicochemical.
Data set [8] in a line: Selectivity index, ratio of CC50 for human MT4 cells to EC50 for antiviral activity against HIV1 LAV infected in human MT4 cells. The format is toxicity, cell-based. As to conditions: MT4 cells (CC50) and HIV1 LAV infected MT4 cells (EC50).
Data set [9] deals with Human immunodeficiency virus 1. As to the kind of experiment: Antiviral activity against HIV1 infected in PBMC assessed as reduction in viral replication by measuring reduction in p24 production by ELISA. The format is functional, organism-based. As to conditions: Human immunodeficiency virus 1, PBMC.

With `CCOC(=O)Cn1cncc1-c1ccc(OC)c(O)c1`, the inhibition in [1] is 30%.

For the molecule `CCOC(=O)Cn1cncc1-c1ccc(C(C)(C)C)cc1`, the inhibition in data set [1] came to 17%.

Regarding `CCOC(=O)Cn1cncc1-c1ccc(F)cc1`, the inhibition in data set [2] was found to be 55%; in data set [1], 54%.

Take `COc1ccc(-c2cncn2CC(=O)NN)cc1OC`: the inhibition in data set [1] turned out to be 28%.

With `CCOC(=O)Cn1cncc1-c1cccc(OC)c1`, the inhibition in data set [2] was found to be 56%; in data set [1], 51%.

On to `CC(C)(C)c1ccc(-c2cncn2CC(=O)NN)cc1`, for which the inhibition in data set [1] came to 45%.

As to `NNC(=O)Cn1cncc1-c1ccccc1`, in data set [1], the inhibition turned out to be 39%.

As to `O=c1cnn([C@@H]2O[C@H](CO)[C@@H](O)[C@H]2O)c(=S)[nH]1`, the inhibition in [1] amounted to 54%.

Turning to `NNC(=O)Cn1cncc1-c1ccc(F)cc1`, the inhibition in data set [1] is 48%.

For the molecule `CCOC(=O)[C@H](C)n1cncc1-c1ccc(F)cc1`, the figures for the inhibition in data set [2] and in data set [1] were 64% and 63%, respectively.

For `COc1ccc(-c2cncn2CC(=O)O)cc1OC`, in data set [1], the inhibition amounted to 25%.

Take `CCOC(=O)[C@H](C)n1cncc1-c1ccccc1`: the inhibition in data set [1] worked out at 22%.

`O=C(O)Cn1cncc1-c1ccccc1`: in [1], the inhibition worked out at 0%.

With `CCOC(=O)Cn1cncc1-c1ccccc1`, in data set [3], the CC50 at 72 h turned out to be 184 µM. For the same molecule, the solubility at 200 µM in [4] was no less than 200 µM. In addition, the half-inhibitory concentration (IC50) in data set [5] came to 11.6 µM. Also, the concentration for a half-maximal effect (EC50) in data set [6] is 6.3 µM. Moreover, in [7], the solubility at 100 µM is no less than 100 µM. Besides, the results for the inhibition in [2] and in [1] were 83% and 82%, respectively. The selectivity ratio in data set [8] was 29.

In the case of `Cc1nnc(C(=O)NC(C)(C)c2nc(C(=O)NCc3ccc(F)cc3)c(O)c(=O)n2C)o1` [RALTEGRAVIR], the EC50 is no more than 0.008 µM in [9] and 0.0079 µM in data set [6].

Consider `NNC(=O)Cn1cncc1-c1ccc2c(c1)OCO2`, for which, in data set [1], the inhibition was 22%.

Regarding `COc1cccc(-c2cncn2CC(=O)NN)c1`, the CC50 at 72 h in [3] came out at 160 µM. In data set [4], this molecule showed a solubility at 200 µM of no less than 200 µM. For the same molecule, the IC50 in [5] came out at 17.6 µM. For the same molecule, the EC50 in data set [6] was found to be 158 µM. The same molecule registered a solubility at 100 µM in data set [7] of no less than 100 µM. In addition, the inhibition was found to be 68% in data set [2] and 69% in data set [1]. Moreover, the selectivity ratio in data set [8] was determined as 1.

As to `O=C(O)Cn1cncc1-c1ccc2c(c1)OCO2`, the inhibition in [1] came to 9%.

As for `CCOC(=O)[C@H](C)n1cncc1-c1ccc(OC)c(OC)c1`, the inhibition in data set [1] was 20%.

For the molecule `CCOC(=O)Cn1cncc1-c1ccc2c(c1)OCO2`, the inhibition in data set [1] amounted to 33%.

In the case of `CCOC(=O)Cn1cncc1-c1ccc(OC)c(OC)c1`, the inhibition in data set [2] was 61%; in data set [1], 58%.

Turning to `O=C(O)Cn1cncc1-c1ccc(F)cc1`, the inhibition in data set [1] was 11%.

As for `COc1ccc(-c2cncn2CC(=O)NN)cc1O`, the results for the inhibition in data set [2] and in data set [1] were 60% and 72%, respectively.

For `COc1ccc(-c2cncn2CC(=O)O)cc1O`, the inhibition in data set [1] turned out to be 0%.

In the case of `CC(C)(C)c1ccc(-c2cncn2CC(=O)O)cc1`, in data set [1], the inhibition turned out to be 2%.

As to `COc1cccc(-c2cncn2CC(=O)O)c1`, the inhibition in [1] amounted to 30%.
